Laboratory results published in patent publication EP2603503B1, “DABIGATRAN ETEXILATE BISMESYLATE SALT, SOLID STATE FORMS AND PROCESS FOR PREPARATION THEREOF” (ratiopharm GmbH, priority 2010, dated 2012).
≈ marks a conversion by molar mass, not a printed value. Structures can show the parent of a compound that is named as a salt. Where two headings read alike, the source gives them in different places.

Columns and labels:
solubility in water = format: physicochemical
[1] = storage stability (temperature / relative humidity); format: physicochemical; settings: at least two weeks
[2] = temperature not stated; cited from earlier work

CCCCCCOC(=O)NC(=N)c1ccc(NCc2nc3cc(C(=O)N(CCC(=O)OCC)c4ccccn4)ccc3n2C)cc1 [Dabigatran etexilate bismesylate]
solubility in water at 37 °C (solubility in water): 33.9 mg/mL
stable upon storage ([1]; about 25°C, relative humidity (RH) about 60%): stable
stable upon storage ([1]; about 40°C, RH about 75%): stable

CCCCCCOC(=O)NC(=N)c1ccc(NCc2nc3cc(C(=O)N(CCC(=O)OCC)c4ccccn4)ccc3n2C)cc1 [Dabigatran etexilate monomesylate, ethyl 3-{[(2-{[(4-{N'-[(hexyloxy)carbonyl]carbamimidoyl}phenyl)amino]methyl}-1-methyl-1H-benzimid-azol-5-yl)carbonyl] (2-pyridinyl)amino}propanoate mesylate salt, reference compound]
solubility in water at 37 °C (solubility in water; mesylate salt): 14.7 mg/mL

CCCCCCOC(=O)NC(=N)c1ccc(NCc2nc3cc(C(=O)N(CCC(=O)OCC)c4ccccn4)ccc3n2C)cc1 [Dabigatran etexilate, Ethyl 3-[(2-{[4-(hexyloxycarbonylaminoiminomethyl)phenylamino]methyl}-1-methyl-1H-benzimidazole-5-carbonyl)pyridin-2-ylamino]propionate base]
solubility in water [2]: 1.8 mg/mL (≈ 2870 µM)
